# Measured values published in PubChem BioAssay (NCI).
#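 Where inhibition never reached the appropriate level, the endpoint shown equals the highest concentration tested. Otherwise, values were interpolated linearly from a five-concentration, 48-hour dose response in 96-well plates. At the TGI there is no net growth.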
# Key:
# Experiment in all cases: inhibition of tumour cell growth, NCI panel, 48 h
# KM20L2 colon = system: KM20L2 colon
# UACC-257 melanoma = system: UACC-257 melanoma
# UACC-62 melanoma = system: UACC-62 melanoma
# TK-10 renal = system: TK-10 renal
# ACHN renal = system: ACHN renal
# SN12C renal = system: SN12C renal
# NCI-H522 lung = system: NCI-H522 lung
# CAKI-1 renal = system: CAKI-1 renal
# KM12 colon = system: KM12 colon
# LXFL 529 NSCLC = system: LXFL 529 NSCLC
# NCI-H226 lung = system: NCI-H226 lung
# LOX IMVI melanoma = system: LOX IMVI melanoma
# NCI-H23 lung = system: NCI-H23 lung
# HCT-15 colon = system: HCT-15 colon
# HCC-2998 colon = system: HCC-2998 colon
# EKVX NSCLC = system: EKVX NSCLC
# RXF 393 renal = system: RXF 393 renal
# K-562 leukemia = system: K-562 leukemia
# OVCAR-4 ovarian = system: OVCAR-4 ovarian
# UO-31 renal = system: UO-31 renal
# A549 NSCLC = system: A549 NSCLC
# SNB-19 CNS = system: SNB-19 CNS
# SF-539 CNS = system: SF-539 CNS
# XF 498 CNS = system: XF 498 CNS
# IGROV1 ovarian = system: IGROV1 ovarian
# HOP-18 NSCLC = system: HOP-18 NSCLC
# MOLT-4 leukemia = system: MOLT-4 leukemia
# U251 CNS = system: U251 CNS
# SF-268 CNS = system: SF-268 CNS
# SNB-78 CNS = system: SNB-78 CNS
# 786-0 renal = system: 786-0 renal
# A498 renal = system: A498 renal
# OVCAR-5 ovarian = system: OVCAR-5 ovarian
# RPMI-8226 leukemia = system: RPMI-8226 leukemia
# SK-MEL-2 melanoma = system: SK-MEL-2 melanoma
# COLO 205 colon = system: COLO 205 colon
# HT29 colon = system: HT29 colon
# NCI-H460 lung = system: NCI-H460 lung
# M14 melanoma = system: M14 melanoma
# SK-MEL-28 melanoma = system: SK-MEL-28 melanoma
# DMS 114 small cell lung = system: DMS 114 small cell lung
# MALME-3M melanoma = system: MALME-3M melanoma
# SK-MEL-5 melanoma = system: SK-MEL-5 melanoma
# SR leukemia = system: SR leukemia
# SNB-75 CNS = system: SNB-75 CNS
# CCRF-CEM leukemia = system: CCRF-CEM leukemia
# HL-60(TB) leukemia = system: HL-60(TB) leukemia
# HCT-116 colon = system: HCT-116 colon
# DLD-1 colon = system: DLD-1 colon
# M19-MEL melanoma = system: M19-MEL melanoma
# SK-OV-3 ovarian = system: SK-OV-3 ovarian
# OVCAR-3 ovarian = system: OVCAR-3 ovarian
# HOP-92 NSCLC = system: HOP-92 NSCLC
# OVCAR-8 ovarian = system: OVCAR-8 ovarian
# DMS 273 small cell lung = system: DMS 273 small cell lung
# SF-295 CNS = system: SF-295 CNS
# HOP-62 NSCLC = system: HOP-62 NSCLC
structure (smiles),measurement,setting,value
CC#CC(OCC)(OCC)OCC,TGI,KM20L2 colon,> 100 µM
same,TGI,UACC-257 melanoma,> 100 µM
same,TGI,UACC-62 melanoma,> 100 µM
same,TGI,TK-10 renal,> 100 µM
same,TGI,ACHN renal,> 100 µM
same,TGI,SN12C renal,> 100 µM
same,TGI,NCI-H522 lung,> 100 µM
same,TGI,CAKI-1 renal,> 100 µM
same,TGI,KM12 colon,> 100 µM
same,TGI,LXFL 529 NSCLC,> 100 µM
same,TGI,NCI-H226 lung,> 100 µM
same,TGI,LOX IMVI melanoma,39.9 µM
same,TGI,NCI-H23 lung,> 100 µM
same,TGI,HCT-15 colon,> 100 µM
same,TGI,HCC-2998 colon,> 100 µM
same,TGI,EKVX NSCLC,> 100 µM
same,TGI,RXF 393 renal,> 100 µM
same,TGI,K-562 leukemia,> 100 µM
same,TGI,OVCAR-4 ovarian,> 100 µM
same,TGI,UO-31 renal,> 100 µM
same,TGI,A549 NSCLC,> 100 µM
same,TGI,SNB-19 CNS,> 100 µM
same,TGI,SF-539 CNS,> 100 µM
same,TGI,XF 498 CNS,> 100 µM
same,TGI,IGROV1 ovarian,> 100 µM
same,TGI,HOP-18 NSCLC,> 100 µM
same,TGI,MOLT-4 leukemia,> 100 µM
same,TGI,U251 CNS,> 100 µM
same,TGI,SF-268 CNS,> 100 µM
same,TGI,SNB-78 CNS,> 100 µM
same,TGI,786-0 renal,> 100 µM
same,TGI,A498 renal,> 100 µM
same,TGI,OVCAR-5 ovarian,> 100 µM
same,TGI,RPMI-8226 leukemia,> 100 µM
same,TGI,SK-MEL-2 melanoma,> 100 µM
same,TGI,COLO 205 colon,> 100 µM
same,TGI,HT29 colon,> 100 µM
same,TGI,NCI-H460 lung,> 100 µM
same,TGI,M14 melanoma,> 100 µM
same,TGI,SK-MEL-28 melanoma,> 100 µM
same,TGI,DMS 114 small cell lung,74.3 µM
same,TGI,MALME-3M melanoma,> 100 µM
same,TGI,SK-MEL-5 melanoma,> 100 µM
same,TGI,SR leukemia,> 100 µM
same,TGI,SNB-75 CNS,> 100 µM
same,TGI,CCRF-CEM leukemia,> 100 µM
same,TGI,HL-60(TB) leukemia,> 100 µM
same,TGI,HCT-116 colon,> 100 µM
same,TGI,DLD-1 colon,> 100 µM
same,TGI,M19-MEL melanoma,> 100 µM
same,TGI,SK-OV-3 ovarian,> 100 µM
same,TGI,OVCAR-3 ovarian,> 100 µM
same,TGI,HOP-92 NSCLC,> 100 µM
same,TGI,OVCAR-8 ovarian,> 100 µM
same,TGI,DMS 273 small cell lung,49.1 µM
same,TGI,SF-295 CNS,> 100 µM
same,TGI,HOP-62 NSCLC,> 100 µM
